From paper PMC12477777, “Human exposure to green spaces and monoterpenes: discovery and use of α-pinene metabolites as biomarkers” (Environment international, 2025)
Where two headings read alike, the source gives them in different places.

Key:
[1] = Kinetic modeling of urinary aPM with a pseudo one-compartment nonlinear mixed-effects model after α-pinene inhalation; format: in vivo, human; settings: for F (%), fraction of metabolite generated from absorbed α-pinene: human urine after 10 min α-pinene inhalation, F normalized to the sum of 22 detected metabolites
Excerpt: In this equation, i represents the participant index, j the urine sample index, C the creatinine-normalized peak response, and t the sample collection time ( h).Ka denotes the first-order generation constant ( h^−1 ), and Ke denotes the first-order elimination rate constant h^−1 . F indicates the fraction of specific aPM relative to absorbed α-pinene. The variables D and V refer to the absorbed α-pinene amount and the distribution volume, respectively. Because input data were derived from relative quantification, absolute values of D , V , and F were not available. For simplicity, D and V were fixed at 100 and 1, respectively, and F was normalized relative to the sum of all detected aPM. The error term ε accounts for residual variation.

[2] = aPM in mouse urine after i.p. injection of (+)-α-pinene or (−)-α-pinene; format: in vivo, mice (C57BL/6); settings: for R/(R+S): mouse urine, enantiomer specificity
Procedure: Mouse urine was collected after exposures to either (+) or (−) α-pinene to distinguish between metabolites of different enantiomers of α-pinene. Adult male mice (C57BL/6) were intraperitoneally administered with 50 mg/kg body weight of (+)-α-pinene or (−)-α-pinene dissolved in 100 μl sterile saline with 1 % Tween 80.

[3] = Relative quantification of urinary aPM (UPLC-QTOF-MS, creatinine-normalized) after controlled α-pinene inhalation; format: in vivo, human; settings: for Proportion (observed) after α-pinene inhalation: share of total response of 22 aPM, averaged over post-exposure samples
Procedure: (§1) Briefly, for controlled inhalation experiments, eight healthy volunteers were exposed to α-pinene in a custom-built exposure chamber via inhalation from a 15 ml conical tube, containing approximately 100 μl α-pinene, for a duration of 10 min. Urine samples were collected before exposure (0 h) and 0.5, 1, 2, 3, and 4 h after exposure. […] Urine samples were collected both before (0 h) or 4 h after exposure. After collection, the urine samples were centrifuged and stored at −80 °C before analysis. […] Demographic information, including sex, age and race, can be found in Table S1.
(§2) Briefly, after 1:10 dilution, urine samples were separated using an Acquity I-Class UPLC system with an Acquity Premier CSH C18 UPLC column (Waters, MA) with a gradient comprising 0.1 % formic acid in water as the solvent A and 0.1 % formic acid in acetonitrile as the solvent B. Mass Spectrometry Elevated Energy (MS^E) data were collected using a Waters Synapt XS MS (Waters, MA) with an ESI ion source operated in the negative mode. Subsequent analyses of raw files were performed using UNIFI 1.9 and Progenesis QI 3.0 (both from Waters, MA). To validate LC-MS performance, one quality control (QC) sample, prepared by pooling equal amount of each urine sample, was injected after every ten urine sample injections.
(§3) Relative quantification of aPM was performed based on the peak responses normalized to urinary creatinine levels. Urinary creatinine levels were measured using an Ace Axcel Clinical Chemistry System with ACE Creatinine Reagent from Alfa Wassermann (West Caldwell, NJ). Statistical analyses, including ANOVA and Student’s t-tests, were conducted using SAS 9.4 (SAS Institute, NC) to explore differences in aPM across various time points. […] A threshold for statistical significance was defined as p < 0.05.

[4] = Urinary aPM after 4 h greenness (forest) exposure; format: in vivo, human; parameters: Maximum response: unit not given here
Procedure: as §1, §2, §3

[5] = cited from earlier work
[6] = human urine after α-pinene inhalation, pseudo one-compartment model
[7] = male, C57BL/6, mouse, in vivo, ip, 50 mg/kg
[8] = human urine after α-pinene inhalation
[9] = human urine, greenness exposure
[10] = mouse urine collected overnight, 50 mg/kg i.p. (+)-α-pinene, 50 mg/kg
[11] = mouse urine collected overnight, 50 mg/kg i.p. (−)-α-pinene, 50 mg/kg

Row | F (%), fraction of metabolite generated from absorbed α-pinene [1] | Ka, first-order generation constant [1, 6] | Frequency of occurrence [4, 9] | Elimination t1/2 [1, 6] | Ke, first-order elimination rate constant [1, 6] | (1R)-(+)-α-Pinene (Average), proportion of aPM in mouse urine [2, 10] | (1S)-(−)-α-Pinene (Average), proportion of aPM in mouse urine [2, 11] | R/(R+S) [2] | Compound | Frequency of occurrence (percentage of samples with analyte detected) [3, 8] | Maximum response (highest peak response across all urine samples) [3, 8] | Proportion (observed) after α-pinene inhalation [3] | Observed Tmax [3, 8] | other results
1 | 0.65 ± 0.31% | 0.73 ± 0.33 h⁻¹ | 0.0% | 58.2 ± 25.2 min | 0.71 ± 0.31 h⁻¹ | – | – | – | Myrtenic acid-4-O-7-O-GlcA [aPM8] | 83.3% | 13644 | 0.8% | 60 min | (1R)-(+)-α-Pinene (Average), proportion of aPM in mouse urine ([2]; mouse urine collected overnight, 50 mg/kg i.p. (+)-α-pinene): 0.0%; (1S)-(−)-α-Pinene (Average), proportion of aPM in mouse urine ([2]; mouse urine collected overnight, 50 mg/kg i.p. (−)-α-pinene): 0.0%
2 | 0.28 ± 0.09% | 2.69 ± 0.73 h⁻¹ | 0.0% | 36.6 ± 7.2 min | 1.15 ± 0.22 h⁻¹ | 3.7% | 0.0% | 100% | Pinanetriol-GlcA [aPM7b] | 83.3% | 8663 | 0.2% | 30 min | –

Second part, the compound before the results:

Row | Compound | F (%), fraction of metabolite generated from absorbed α-pinene [1] | Ka, first-order generation constant [1, 6] | Frequency of occurrence [4, 9] | Elimination t1/2 [1, 6] | Ke, first-order elimination rate constant [1, 6] | (1R)-(+)-α-Pinene (Average), proportion of aPM in mouse urine [2, 10] | (1S)-(−)-α-Pinene (Average), proportion of aPM in mouse urine [2, 11] | R/(R+S) [2] | Frequency of occurrence (percentage of samples with analyte detected) [3, 8] | Maximum response (highest peak response across all urine samples) [3, 8] | Proportion (observed) after α-pinene inhalation [3] | Observed Tmax [3, 8] | other results
3 | CC1(C)C2CC=C(COC3OC(C(=O)O)C(O)C(O)C3O)C1C2 (centres unmarked) [aPM2c, myrtenol glucuronide] | 6.99 ± 2.12% | 3.02 ± 0.88 h⁻¹ | 31.3% | – | – | – | – | – | 95.8% | 154854 | 4.9% | – | half-life ([1]; inhaled or intranasal, human urine after α-pinene inhalation, pseudo one-compartment model, read-out: Elimination t1/2 (converted)): 30 ± 5.4 min; k el ([1]; inhaled or intranasal, human urine after α-pinene inhalation, pseudo one-compartment model, read-out: Ke, first-order elimination rate constant (converted)): 0.000386 s⁻¹; (1R)-(+)-α-Pinene (Average), proportion of aPM in mouse urine [2, 7]: 21.8%; (1S)-(−)-α-Pinene (Average), proportion of aPM in mouse urine [2, 7]: 30.3%; Tmax ([3]; inhaled or intranasal, human urine after α-pinene inhalation, read-out: Observed Tmax): 30 min; Maximum response [4, 9]: 1435; Proportion (observed) after greenness exposure ([4]; share of total aPM response): 0.5%
4 | C=C(C)[C@H]1CC=C(C)CC1 [limonene] | – | – | – | – | – | – | – | – | – | – | – | – | Blood half-life (t1/2α) ([5]; limonene in blood, ref Falk-Filipsson et al., 1993): ~ 3 min
5 | CC1=CCC2CC1C2(C)C (stereo not drawn) [α-pinene, α-Pinene] | – | – | – | – | – | – | – | – | – | – | – | – | Blood half-life (t1/2α) ([5]; α-pinene in blood, ref Falk et al., 1990): ~ 5 min
6 | Pinanetriol-GlcA [aPM7a] | 1.56 ± 0.66% | 1.46 ± 0.48 h⁻¹ | 0.0% | 44.4 ± 13.2 min | 0.93 ± 0.27 h⁻¹ | 21.2% | 3.8% | 84.7% | 89.6% | 20611 | 1.3% | 60 min | –
